Laboratory results taken from patent US5211944A, “Proanthocyanidin polymers having antiviral activity and methods of obtaining same” (Shaman Pharmaceuticals, Inc., priority 1991, dated 1993).

Assays:
Influenza viruses = details: cited from earlier work
Herpes simplex virus [1] = details: cited from earlier work
[2] = Uninfected toxicity controls, topical treatment (HSV-2 study); format: in vivo, Swiss Webster mice; details: 5% topical
Protocol: (§1) Groups of 5 mice were sham-infected using the process described above for virus infection, except that no virus was present for the final step. These mice were treated the same way and at the same times as above. Mice were checked daily for survival, and weights were recorded before the first (day 0) and after the last (day 8) treatment.
The efficacy of proanthocyanidin polymer A is compared with ganciclovir and acyclovir. Both ganciclovir powder and acyclovir cream were obtained commercially. Squibb cream base #8, which served as a vehicle and as the topical placebo control, was also commercially obtained.
The methods of infecting the mice, setting toxicity control and the parameters measured to evaluate the infection were the same as described above for the intraperitoneal tests. Topical treatments on the day of infection were given at +6 hours. They were then given twice daily for 7 more days.

[3] = system: Herpes Simplex Virus Type 2 (HSV-2); assay: HSV-2 vaginitis in mice, topical treatment; format: in vivo, Swiss Webster mice
Herpes Simplex virus [4] = details: Beladi et al., 1977; in vitro; cited from earlier work
[5] = system: Herpes Simplex Virus Type 2 (HSV-2); assay: HSV-2 vaginitis in mice, intraperitoneal treatment; format: in vivo, Swiss Webster mice; details: 30 mg/kg/day i.p.
[6] = Uninfected toxicity controls, i.p. treatment (HSV-2 study); format: in vivo, Swiss Webster mice; details: 30 mg/kg/day i.p.
Protocol: Six hours after virus infection, intraperitoneal (i.p.) injections were administered using proanthocyanidin polymer A, ganciclovir, or placebo. Treatments were also given i.p. twice daily on days 1 through 7 after virus challenge. The daily dose of each compound was 30 mg/kg/day, with 15 mg/kg given at each injection. Since on day 0 of the infection only one dose was given, the daily dose for that day was 15 mg/kg/day.
as §1

Herpes Simplex virus [7] = details: HEp-2 cells; Beladi et al.; cited from earlier work

Q: Which “central nervous system side effects” value (Influenza viruses) does the source give for `CC(N)C12CC3CC(CC(C3)C1)C2` (racemic) [Rimantidine] here?
A: The value was “not associated with the central nervous system side-effects”.

Q: And the “effect on fever duration and respiratory symptoms, versus amantadine” value (Influenza viruses)?
A: Its value is “shows a similar effect”.

Q: For `Nc1nc2c(ncn2COCCO)c(=O)[nH]1` [Acyclovir], which “topical effectiveness” value (Herpes simplex virus [1]) is on record?
A: Its value is “not effective topically when used against recurrent genital infections”.

Q: And the “Host Wt. Change” value ([2]; day 8 minus day 0)?
A: Its value is “+2.0 grams”.

Q: What about the “Mean Day to Death” value ([2]; uninfected toxicity controls) of the same compound?
A: Its value is greater than 21 days.

Q: What about the Survivors/Total ([2]; uninfected toxicity controls) of the same compound?
A: Its Survivors/Total is 5/5.

Q: And the survival ([2]; mouse, in vivo, topical or ocular, uninfected toxicity controls, read-out: Survivors (%))?
A: The survival was 100%.

Q: And the “lesion formation in infected animals” value ([3]; 5% cream)?
A: Its value is “nearly completely prevented lesion formation”.

Q: What about the “Average Lesion Score” value ([3]; 5% topical, day 3) of the same compound?
A: The value was 0.2 ± 0.2.

Q: And the “Average Lesion Score” value ([3]; 5% topical, day 4)?
A: The value was 0.1 ± 0.2.

Q: And the “Average Lesion Score” value ([3]; 5% topical, day 5)?
A: The value was 0.0 ± 0.0.

Q: What about the “Average Lesion Score” value ([3]; 5% topical, day 6) of the same compound?
A: The value was 0.0 ± 0.0.

Q: What about the “Average Lesion Score” value ([3]; 5% topical, day 7) of the same compound?
A: Its value is 0.0 ± 0.0.

Q: What about the “Average Lesion Score” value ([3]; 5% topical, day 8) of the same compound?
A: Its value is 0.1 ± 0.2.

Q: And the “Average Lesion Score” value ([3]; 5% topical, day 9)?
A: Its value is 0.0 ± 0.0.

Q: And the “Average Lesion Score” value ([3]; 5% topical, day 10)?
A: The value was 0.0.

Q: What about the “Average Lesion Score” value ([3]; 5% topical, day 11) of the same compound?
A: The value was 0.0 ± 0.0.

Q: What about the “Average Lesion Score” value ([3]; 5% topical, day 12) of the same compound?
A: Its value is 0.0 ± 0.0.

Q: And the “Average Lesion Score” value ([3]; 5% topical, day 13)?
A: Its value is 0.0 ± 0.0.

Q: What about the “Average Lesion Score” value ([3]; 5% topical, day 14) of the same compound?
A: The value was 0.0 ± 0.0.

Q: What about the “No. of Mice W/O Lesion” value ([3]; 5% topical, day 14 of the infection) of the same compound?
A: Its value is 10/10.

Q: What about the “Virus Titer (Day 2)” value ([3]; 5% topical, vaginal) of the same compound?
A: The value was 0.6 ± 0.2 Log 10 50% cell culture infectious dose per ml.

Q: And the “Mean Day to Death” value ([3]; 5% topical, virus-infected)?
A: The value was greater than 21 days.

Q: And the “Survivors (%)” value ([3]; 5% topical, virus-infected)?
A: Its value is 100%.

Q: And the Survivors/Total ([3]; 5% topical, virus-infected)?
A: The Survivors/Total was 10/10.

Q: With `O=c1cc(-c2ccc(O)cc2)oc2cc(O)cc(O)c12` [Apigenin] as the compound, how does the “virus-inactivating (viricidal) activity” value (Herpes Simplex virus [4]) read?
A: Its value is “only a slight effect”.

Q: With `Nc1nc(O)c2ncn(COC(CO)CO)c2n1` [Ganciclovir] as the compound, how does the “Average Lesion Score” value ([5]; day 3) read?
A: Its value is 0.1 ± 0.2.

Q: What about the “Average Lesion Score” value ([5]; day 4) of the same compound?
A: Its value is 0.2 ± 0.2.

Q: And the “Average Lesion Score” value ([5]; day 5)?
A: The value was 0.2 ± 0.2.

Q: What about the “Average Lesion Score” value ([5]; day 6) of the same compound?
A: Its value is 0.2 ± 0.2.

Q: And the “Average Lesion Score” value ([5]; day 7)?
A: The value was 0.2 ± 0.2.

Q: And the “Average Lesion Score” value ([5]; day 8)?
A: Its value is 0.3 ± 0.4.

Q: And the “Average Lesion Score” value ([5]; day 9)?
A: Its value is 0.4 ± 0.3.

Q: And the “Average Lesion Score” value ([5]; day 10)?
A: Its value is 0.5 ± 0.5.

Q: And the “Average Lesion Score” value ([5]; day 12)?
A: Its value is 0.9 ± 0.2.

Q: And the “Average Lesion Score” value ([5]; day 13)?
A: Its value is 0.6 ± 0.6.

Q: And the “Average Lesion Score” value ([5]; day 14)?
A: Its value is 0.6 ± 0.6.

Q: And the “Average Lesion Score, Grand Avg.” value ([5]; days 3-14)?
A: The value was 0.4 ± 0.2.

Q: What about the “Virus Titer (Day 3)” value ([5]; vaginal swab) of the same compound?
A: Its value is 1.7 ± 1.0 Log10 50% cell culture infectious dose per ml.

Q: And the “Mean Day to Death” value ([5]; virus-infected)?
A: Its value is greater than 21 days.

Q: And the “Survivors (%)” value ([5]; virus-infected)?
A: The value was 100%.

Q: What about the Survivors/Total ([5]; virus-infected) of the same compound?
A: The Survivors/Total was 10/10.

Q: What about the “tolerability in toxicity control mice” value [6] of the same compound?
A: The value was “gained less weight than placebo controls”.

Q: And the “Host Wt. Change” value ([6]; day 8 minus day 0)?
A: Its value is “+1.0 grams”.

Q: And the “Mean Day to Death” value ([6]; uninfected toxicity controls)?
A: The value was greater than 21 days.

Q: And the Survivors/Total ([6]; uninfected toxicity controls)?
A: Its Survivors/Total is 5/5.

Q: What about the survival ([6]; mouse, in vivo, ip, uninfected toxicity controls, read-out: Survivors (%)) of the same compound?
A: Its survival is 100%.

Q: Which “topical effectiveness” value (Herpes simplex virus [1]) does the source give for `Nc1ncnc2c1ncn2[C@@H]1O[C@H](CO)[C@@H](O)[C@@H]1O` [Vidarabine, adenine arabinoside] here?
A: The value was “not effective topically against herpes labialis or other skin/genital infections”.

Q: For `O=c1c(O)c(-c2ccc(O)c(O)c2)oc2cc(O)cc(O)c12` [quercetin], which “inhibitory effect on virus multiplication” value (Herpes Simplex virus [7]) is on record?
A: Its value is “only a slight inhibitory effect on virus multiplication”.
